The values that follow come from PubChem BioAssay (NCI).

Each structure is given as a SMILES string.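 Where inhibition never reached the appropriate level, the endpoint shown equals the highest concentration tested. Otherwise, values were interpolated linearly from a five-concentration, 48-hour dose response in 96-well plates. The concentration for 50% growth inhibition is given as GI50. TGI is the concentration that stops growth completely.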 Bounds are passed on as bounds.

Common to all, as to test: NCI-60 cell line screen, 48 h
The subject of test [1] is SK-OV-3 ovarian.
The subject of test [2] is NCI-H226 lung.
Test [3] concerns SN12C renal.
Test [4] deals with MOLT-4 leukemia.
Test [5] deals with SNB-75 CNS.
The subject of test [6] is SF-295 CNS.
Test [7] deals with A498 renal.
The subject of test [8] is HCT-116 colon.

In the case of `COc1ccc(Cc2c3cc(OC)c(OC)cc3cc[n+]2C)cc1`, the TGI in test [1] is above 47.3 µM; in test [2] it was above 51.9 µM; in test [3] it was above 28.3 µM; in test [4], above 100 µM; in test [5], 34.6 µM; in test [6], above 24.7 µM. Further, the TGI was above 100 µM in test [7] and above 24.8 µM in test [8].
In the case of `C#CC[C@]12CC(=O)CC[C@H]1CC1(C2)OCCO1`, the TGI in test [1], in test [2], in test [3], in test [4], in test [5] and in test [7] was above 100 µM throughout. Further, the TGI in test [8] was above 100 µM.
Consider `Cc1cc2c(=O)cc(-c3ccncc3)oc2c(C(N)=O)c1C`, for which the TGI in test [1], in test [2], in test [3], in test [4], in test [5] and in test [6] was above 100 µM each time. For the same molecule, in test [8], the TGI is above 100 µM.
Consider `C[C@H](O)CCC(=O)c1ccoc1`, for which the TGI in test [1], in test [2], in test [3], in test [4], in test [5] and in test [6] was above 100 µM in each case. The TGI in test [7] and in test [8] was above 100 µM in each case.
Regarding `C/C(=N\NC(N)=S)c1ccc(Oc2ccccc2)cc1`, the TGI in test [1] worked out at 36.3 µM; in test [3], 38.4 µM; in test [4], 17.4 µM; in test [5] it was 33.6 µM; in test [6], 38.4 µM; in test [7] it was 29.5 µM. The molecule also registered a TGI in test [8] of 22.6 µM.
Take `Cc1c(Cl)ccc2[s+]snc12`: the TGI in test [1] was above 100 µM; in test [2], above 100 µM; in test [3], 57.3 µM; in test [4], 95.1 µM; in test [5], above 100 µM; in test [6] it was above 100 µM. Besides, the TGI is above 100 µM in test [7] and 59 µM in test [8].
Consider `CC(=O)[O-].O=C([CH-]C(=O)c1ccccc1)c1ccccc1.O=C([CH-]C(=O)c1ccccc1)c1ccccc1.[Dy+3]`, for which the GI50 in test [1] was 16.9 µM; in test [2], 3.79 µM; in test [3], 11.9 µM; in test [4], 4.59 µM; in test [5], 3.33 µM; in test [6] it was 7.73 µM. Besides, the GI50 in test [7] is 15.5 µM; in test [8] it was 5.75 µM. Also, the TGI in test [1] came out at 61.5 µM; in test [2] it was 15.6 µM; in test [3] it was 59.5 µM; in test [4] it was 31.9 µM; in test [5], 8.46 µM; in test [6] it was 28.8 µM. Moreover, the figures for the TGI in test [7] and in test [8] were 61.5 µM and 23.1 µM, respectively.
For the molecule `CC[C@H]1CNC(=O)CC1CC(=O)OC` (stereo not given in full), the TGI in test [1], in test [2], in test [3], in test [4], in test [5] and in test [6] was above 100 µM each time. The TGI in test [7] and in test [8] was above 100 µM throughout.
Turning to `COc1cc(Br)c(C2OCCCO2)cc1OCc1ccccc1`, the TGI in test [1], in test [2], in test [3], in test [4], in test [5] and in test [6] was above 100 µM in each case. Also, the TGI in test [7] and in test [8] was above 100 µM in each case.
Consider `CCn1c(O)c(C(=O)Nc2cccs2)c(=O)n(CC)c1=S`, for which the TGI was 77.9 µM in test [1]; 56.8 µM in test [2]; 70.8 µM in test [3]; 59.8 µM in test [4]; 33.4 µM in test [5]; 35.6 µM in test [6]. The TGI in test [7] was 36.8 µM; in test [8], 37.3 µM.
`CC1(C)OC2OC(/C=C/[N+](=O)[O-])C3OC(C)(C)OC3C2O1` (stereo not given): the TGI in test [1] amounted to 34.8 µM; in test [2] it was 37.1 µM; in test [3], 31.1 µM; in test [4], 13.2 µM; in test [5] it was 34.8 µM; in test [6], 36 µM. The TGI worked out at 47.1 µM in test [7] and 23 µM in test [8].
As for `O=C1N(c2ccccc2)C2(O)C(=O)c3ccccc3C2(O)N1c1ccccc1` (stereo not given), the TGI in test [1], in test [2], in test [3], in test [4], in test [5] and in test [6] was above 100 µM in each case. For the same molecule, the TGI in test [7] and in test [8] was above 100 µM each time.
Take `COc1ccc2c(c1)c(-c1nc(-c3cn(C)c4ncccc34)cs1)cn2CCCCN1CCCCC1`: the GI50 is 1.71 µM in test [1], 1.52 µM in test [2], 1.07 µM in test [5] and 1.66 µM in test [7]. For the same molecule, the TGI in test [1] turned out to be 3.15 µM; in test [2], 3.11 µM; in test [5] it was 2.28 µM; in test [7] it was 3.11 µM.
`N#CC1(C2CC(=O)N(c3ccccc3)C2=O)CCCCC1=O` (stereo not given): the TGI in test [1], in test [2], in test [3], in test [4], in test [5] and in test [6] was above 100 µM throughout.
Take `COc1cc(CC2c3cc(OC)c(OC)cc3CCN2C)c(C(=O)O)cc1OC` (stereo not given): the TGI in test [1], in test [2], in test [3], in test [4], in test [5] and in test [6] was above 100 µM each time. The TGI in test [7] and in test [8] was above 100 µM each time.
Consider `CCOc1ccc(/C=C/C(=O)c2sc(NNC(C)=O)nc2C)cc1`, for which the TGI in test [1], in test [3], in test [4], in test [5], in test [6] and in test [7] was above 100 µM each time.
With `O=C1C(=C2C(=O)c3ccccc3[N+]2=O)N([O-])c2ccccc21`, the TGI was above 100 µM in test [1]; 81.4 µM in test [2]; 48.7 µM in test [4]; 83.8 µM in test [5]; above 100 µM in test [6]; 73.8 µM in test [7].
